# Results taken from PubChem BioAssay (NCI).
#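 Step 1: Grow cells in 96-well plates. Step 2: Expose to compound for 48 hours at 5 concentrations. Step 3: Interpolate endpoints linearly; if unreached, use highest concentration. TGI marks complete inhibition of growth.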
# Key:
# Assay in all cases: inhibition of tumour cell growth, NCI panel, 48 h
# [1] = test system: MDA-MB-231 breast
# [2] = test system: HT29 colon
# [3] = test system: NCI-H460 lung
# [4] = test system: MCF7 breast
# [5] = test system: MOLT-4 leukemia
# [6] = test system: NCI-H522 lung
# [7] = test system: SF-268 CNS
# [8] = test system: 786-0 renal
# [9] = test system: LOX IMVI melanoma
# [10] = test system: OVCAR-3 ovarian
# [11] = test system: KM12 colon
# [12] = test system: HCT-116 colon
# [13] = test system: SK-MEL-5 melanoma
# [14] = test system: NCI-H226 lung
# [15] = test system: SNB-19 CNS
# [16] = test system: COLO 205 colon
# [17] = test system: M14 melanoma
# [18] = test system: UACC-257 melanoma
# [19] = test system: BT-549 breast
Structure (SMILES),TGI [1],TGI [2],TGI [3],TGI [4],TGI [5],TGI [6],TGI [7],TGI [8],TGI [9],TGI [10],TGI [11],TGI [12],TGI [13],TGI [14],TGI [15],TGI [16],TGI [17],TGI [18],TGI [19]
C/C(CC(O)(C(F)(F)F)C(F)(F)F)=N\NC(N)=S,> 10 µM,> 10 µM,> 10 µM,> 10 µM,> 10 µM,> 10 µM,> 10 µM,> 10 µM,> 10 µM,> 10 µM,> 10 µM,> 10 µM,> 10 µM,> 10 µM,> 10 µM,> 10 µM,> 10 µM,> 10 µM,–
CC(=O)OCCCCn1nncc1Cn1ccc(=O)n(Cc2cnnn2CCCCOC(C)=O)c1=O,> 100 µM,–,–,> 100 µM,> 100 µM,–,> 100 µM,> 100 µM,> 100 µM,> 100 µM,> 100 µM,> 100 µM,> 100 µM,> 100 µM,> 100 µM,> 100 µM,> 100 µM,> 100 µM,> 100 µM
CCOC(=O)c1ccc(NCc2ccc3nc(OC)c(OC)nc3c2)cc1,> 100 µM,> 100 µM,> 100 µM,> 100 µM,> 100 µM,> 100 µM,> 100 µM,> 100 µM,> 100 µM,> 100 µM,> 100 µM,> 100 µM,> 100 µM,> 100 µM,> 100 µM,> 100 µM,> 100 µM,> 100 µM,–
Cc1cc2c3c(nc2c2cc[nH]c(C)c12)CCCC3,3.17 µM,6.25 µM,4.27 µM,3.02 µM,4.32 µM,–,14 µM,3.04 µM,4.69 µM,5.07 µM,7.13 µM,3.35 µM,2.89 µM,29.6 µM,–,3.37 µM,3.63 µM,3.66 µM,–
CC(=O)/C(=C/N1CC(=O)NC1=S)C(=O)Nc1ccccc1C,> 100 µM,> 100 µM,> 100 µM,–,> 100 µM,–,> 100 µM,> 100 µM,> 100 µM,> 100 µM,> 100 µM,> 100 µM,> 100 µM,–,> 100 µM,> 100 µM,> 100 µM,> 100 µM,> 100 µM
O=C(CSc1nc2ccc(I)cc2c(=O)n1Cc1ccccc1)NNC(=S)Nc1ccccc1,–,> 100 µM,> 100 µM,> 100 µM,> 100 µM,> 100 µM,> 100 µM,> 100 µM,> 100 µM,> 100 µM,> 100 µM,> 100 µM,> 100 µM,> 100 µM,> 100 µM,> 100 µM,> 100 µM,98.7 µM,> 100 µM
CCSC1=N/C(=C\c2ccco2)C(Nc2ccc(C)cc2)=N1,> 100 µM,> 100 µM,–,> 100 µM,> 100 µM,> 100 µM,> 100 µM,> 100 µM,> 100 µM,> 100 µM,> 100 µM,> 100 µM,> 100 µM,> 100 µM,> 100 µM,> 100 µM,> 100 µM,–,–
